Data reported in ChEMBL document CHEMBL4229370, “Discovery of novel quinazolinone derivatives as high potent and selective PI3Kδ and PI3Kδ/γ inhibitors” (Eur J Med Chem, 2018).
pIC50: −log10 of the molar value. One block for each compound: values may come before it.

Key:
[1] = molecular target: T1, Phosphatidylinositol 4,5-bisphosphate 3-kinase catalytic subunit delta isoform (Homo sapiens, UniProt O00329); assay: Inhibition of PI3Kdelta (unknown origin) using Biotin-S11S12 as substrate after 120 mins in presence of ATP by ADPGlo luminescence assay
T1 sequence (O00329 whole entry): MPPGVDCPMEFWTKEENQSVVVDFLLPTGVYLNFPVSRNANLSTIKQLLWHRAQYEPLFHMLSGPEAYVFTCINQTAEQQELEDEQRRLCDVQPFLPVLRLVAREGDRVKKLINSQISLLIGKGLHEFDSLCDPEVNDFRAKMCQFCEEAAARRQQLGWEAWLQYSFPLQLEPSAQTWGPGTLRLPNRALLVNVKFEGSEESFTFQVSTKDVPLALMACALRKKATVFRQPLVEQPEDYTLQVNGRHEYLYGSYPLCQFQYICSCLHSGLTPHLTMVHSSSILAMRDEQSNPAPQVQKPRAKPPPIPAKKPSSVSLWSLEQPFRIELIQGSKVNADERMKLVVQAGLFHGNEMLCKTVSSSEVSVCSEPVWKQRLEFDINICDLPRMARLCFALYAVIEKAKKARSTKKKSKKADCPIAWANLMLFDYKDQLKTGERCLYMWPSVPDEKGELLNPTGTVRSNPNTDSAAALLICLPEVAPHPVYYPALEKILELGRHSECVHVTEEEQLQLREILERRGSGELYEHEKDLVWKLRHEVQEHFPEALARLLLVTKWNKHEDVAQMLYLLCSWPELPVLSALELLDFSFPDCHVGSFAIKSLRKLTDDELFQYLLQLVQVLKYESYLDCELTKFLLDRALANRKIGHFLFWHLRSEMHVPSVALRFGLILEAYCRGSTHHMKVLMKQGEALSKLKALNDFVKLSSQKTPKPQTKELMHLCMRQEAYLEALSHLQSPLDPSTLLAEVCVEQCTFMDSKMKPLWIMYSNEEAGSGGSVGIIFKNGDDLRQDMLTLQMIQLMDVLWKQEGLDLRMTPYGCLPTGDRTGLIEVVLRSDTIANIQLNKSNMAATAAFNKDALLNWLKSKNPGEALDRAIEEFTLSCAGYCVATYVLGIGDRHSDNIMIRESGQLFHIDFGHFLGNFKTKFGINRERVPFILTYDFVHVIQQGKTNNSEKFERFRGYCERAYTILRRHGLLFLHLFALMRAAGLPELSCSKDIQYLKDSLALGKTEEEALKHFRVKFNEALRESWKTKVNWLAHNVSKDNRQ

[2] = molecular target: T2, Phosphatidylinositol 4,5-bisphosphate 3-kinase catalytic subunit delta isoform (Homo sapiens) (UniProt O00329); assay: Inhibition of PI3Kdelta (unknown origin) at 1 uM using Biotin-S11S12 as substrate after 120 mins in presence of ATP by ADPGlo luminescence assay
T2 sequence (whole entry): T1 sequence (O00329 whole entry)

[3] = molecular target: Phosphatidylinositol 4,5-bisphosphate 3-kinase catalytic subunit alpha isoform (Homo sapiens, UniProt P42336); assay: Inhibition of PI3Kalpha (unknown origin) using Biotin-S11S12 as substrate after 60 mins in presence of ATP by Kinase Glo luminescence assay
[4] = Plasma concentration in Sprague-Dawley rat at 10 mg/kg, po after 0.083 hrs; type: ADME, organism-based
[5] = Plasma concentration in Sprague-Dawley rat at 10 mg/kg, po after 0.5 hrs; type: ADME, organism-based
[6] = Plasma concentration in Sprague-Dawley rat at 1 mg/kg, iv after 4 hrs; type: ADME, organism-based
[7] = Plasma concentration in Sprague-Dawley rat at 10 mg/kg, po after 4 hrs; type: ADME, organism-based
[8] = Plasma concentration in Sprague-Dawley rat at 10 mg/kg, po after 0.25 hrs; type: ADME, organism-based
[9] = Oral bioavailability in Sprague-Dawley rat at 10 mg/kg; type: ADME, organism-based; settings: in vivo
[10] = Plasma concentration in Sprague-Dawley rat at 1 mg/kg, iv after 0.5 hrs; type: ADME, organism-based
[11] = Clearance in Sprague-Dawley rat at 1 mg/kg, iv; type: ADME, organism-based; settings: in vivo
[12] = Plasma concentration in Sprague-Dawley rat at 10 mg/kg, po after 8 hrs; type: ADME, organism-based
[13] = molecular target: Phosphatidylinositol 4,5-bisphosphate 3-kinase catalytic subunit beta isoform (Homo sapiens, UniProt P42338); assay: Inhibition of PI3Kbeta (unknown origin) using Biotin-S11S12 as substrate after 60 mins in presence of ATP by ADPGlo luminescence assay
[14] = Plasma concentration in Sprague-Dawley rat at 1 mg/kg, iv after 8 hrs; type: ADME, organism-based
[15] = organism: Homo sapiens; assay: Selectivity index, ratio of IC50 for PI3Kalpha (unknown origin) to IC50 for PI3Kdelta (unknown origin)
[16] = AUC (0 to infinity) in Sprague-Dawley rat at 10 mg/kg, po; type: ADME, organism-based; set-up: dose 10 mg/kg, time infinity, route oral; settings: in vivo
[17] = Volume of distribution at steady state in Sprague-Dawley rat at 1 mg/kg, iv; type: ADME, organism-based; settings: in vivo, read-out: Vdss
[18] = MRT (infinity) in Sprague-Dawley rat at 1 mg/kg, iv; type: ADME, organism-based; settings: in vivo
[19] = Plasma concentration in Sprague-Dawley rat at 1 mg/kg, iv after 24 hrs; type: ADME, organism-based; settings: in vivo, BLD = below limit of detection
[20] = Plasma concentration in Sprague-Dawley rat at 1 mg/kg, iv after 0.083 hrs; type: ADME, organism-based
[21] = organism: Homo sapiens; assay: Selectivity index, ratio of IC50 for PI3Kbeta (unknown origin) to IC50 for PI3Kdelta (unknown origin)
[22] = tested on: SU-DHL-6; assay: Growth inhibition of human SU-DHL6 cells by CellTiter-Glo assay; type: functional
[23] = Cmax in Sprague-Dawley rat at 10 mg/kg, po; type: ADME, organism-based; set-up: dose 10 mg/kg, route oral; settings: in vivo
[24] = organism: Homo sapiens; assay: Selectivity index, ratio of IC50 for PI3Kgamma (unknown origin) to IC50 for PI3Kdelta (unknown origin)
[25] = Plasma concentration in Sprague-Dawley rat at 1 mg/kg, iv after 0.25 hrs; type: ADME, organism-based
[26] = Tmax in Sprague-Dawley rat at 10 mg/kg, po; type: ADME, organism-based; settings: in vivo
[27] = AUC (0 to infinity) in Sprague-Dawley rat at 1 mg/kg, iv; type: ADME, organism-based; set-up: dose 1 mg/kg, time infinity, route intravenous; settings: in vivo
[28] = Plasma concentration in Sprague-Dawley rat at 10 mg/kg, po after 24 hrs; type: ADME, organism-based; settings: in vivo, BLD = below limit of detection
[29] = Plasma concentration in Sprague-Dawley rat at 10 mg/kg, po after 1 hrs; type: ADME, organism-based
[30] = molecular target: Phosphatidylinositol 4,5-bisphosphate 3-kinase catalytic subunit gamma isoform (Homo sapiens, UniProt P48736); assay: Inhibition of PI3Kgamma (unknown origin) using Biotin-S11S12 as substrate after 60 mins in presence of ATP by ADPGlo luminescence assay
[31] = AUClast in Sprague-Dawley rat at 1 mg/kg, iv; type: ADME, organism-based; set-up: dose 1 mg/kg, time 0 - last, route intravenous; settings: in vivo
[32] = AUClast in Sprague-Dawley rat at 10 mg/kg, po; type: ADME, organism-based; set-up: dose 10 mg/kg, time 0 - last, route oral; settings: in vivo
[33] = Plasma concentration in Sprague-Dawley rat at 1 mg/kg, iv after 1 hrs; type: ADME, organism-based
[34] = Plasma concentration in Sprague-Dawley rat at 10 mg/kg, po after 2 hrs; type: ADME, organism-based
[35] = Terminal half-life in Sprague-Dawley rat at 10 mg/kg, po; type: ADME, organism-based; settings: in vivo, read-out: beta t1/2 (converted)
[36] = Plasma concentration in Sprague-Dawley rat at 1 mg/kg, iv after 2 hrs; type: ADME, organism-based
[37] = Terminal half-life in Sprague-Dawley rat at 1 mg/kg, iv; type: ADME, organism-based; settings: in vivo, read-out: beta t1/2 (converted)

Phosphatidylinositol 4,5-bisphosphate 3-kinase catalytic subunit beta isoform, sequence (P42338 whole entry, canonical isoform): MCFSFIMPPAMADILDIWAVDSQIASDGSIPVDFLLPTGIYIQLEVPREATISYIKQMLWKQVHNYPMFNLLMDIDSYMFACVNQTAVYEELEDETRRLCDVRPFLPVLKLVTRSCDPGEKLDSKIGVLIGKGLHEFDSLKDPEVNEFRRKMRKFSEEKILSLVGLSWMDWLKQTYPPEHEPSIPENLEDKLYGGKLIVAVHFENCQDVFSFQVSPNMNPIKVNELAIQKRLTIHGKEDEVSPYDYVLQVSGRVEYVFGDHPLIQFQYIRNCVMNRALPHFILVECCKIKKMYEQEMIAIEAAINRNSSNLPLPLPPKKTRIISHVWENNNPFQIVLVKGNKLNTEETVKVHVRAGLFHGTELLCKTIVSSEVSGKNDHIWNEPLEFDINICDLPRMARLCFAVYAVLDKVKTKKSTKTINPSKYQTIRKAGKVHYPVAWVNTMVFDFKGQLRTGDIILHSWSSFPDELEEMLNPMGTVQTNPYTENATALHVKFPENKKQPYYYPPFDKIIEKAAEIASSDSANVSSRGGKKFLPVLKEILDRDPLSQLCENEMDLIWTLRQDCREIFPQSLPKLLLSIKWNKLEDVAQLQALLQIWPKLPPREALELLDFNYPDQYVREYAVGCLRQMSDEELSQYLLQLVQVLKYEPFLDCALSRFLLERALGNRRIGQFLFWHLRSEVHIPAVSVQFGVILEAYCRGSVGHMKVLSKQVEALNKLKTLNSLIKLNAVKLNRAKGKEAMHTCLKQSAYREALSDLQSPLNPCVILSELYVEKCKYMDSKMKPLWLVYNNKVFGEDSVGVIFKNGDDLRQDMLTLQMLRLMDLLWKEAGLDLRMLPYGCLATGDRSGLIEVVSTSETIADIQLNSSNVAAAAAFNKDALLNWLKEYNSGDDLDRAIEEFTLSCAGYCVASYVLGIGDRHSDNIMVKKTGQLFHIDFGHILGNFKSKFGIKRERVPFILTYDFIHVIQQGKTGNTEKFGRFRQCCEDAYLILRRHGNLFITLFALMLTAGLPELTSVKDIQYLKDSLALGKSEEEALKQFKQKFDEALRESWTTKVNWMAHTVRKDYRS
Phosphatidylinositol 4,5-bisphosphate 3-kinase catalytic subunit alpha isoform, sequence (P42336 whole entry, canonical isoform): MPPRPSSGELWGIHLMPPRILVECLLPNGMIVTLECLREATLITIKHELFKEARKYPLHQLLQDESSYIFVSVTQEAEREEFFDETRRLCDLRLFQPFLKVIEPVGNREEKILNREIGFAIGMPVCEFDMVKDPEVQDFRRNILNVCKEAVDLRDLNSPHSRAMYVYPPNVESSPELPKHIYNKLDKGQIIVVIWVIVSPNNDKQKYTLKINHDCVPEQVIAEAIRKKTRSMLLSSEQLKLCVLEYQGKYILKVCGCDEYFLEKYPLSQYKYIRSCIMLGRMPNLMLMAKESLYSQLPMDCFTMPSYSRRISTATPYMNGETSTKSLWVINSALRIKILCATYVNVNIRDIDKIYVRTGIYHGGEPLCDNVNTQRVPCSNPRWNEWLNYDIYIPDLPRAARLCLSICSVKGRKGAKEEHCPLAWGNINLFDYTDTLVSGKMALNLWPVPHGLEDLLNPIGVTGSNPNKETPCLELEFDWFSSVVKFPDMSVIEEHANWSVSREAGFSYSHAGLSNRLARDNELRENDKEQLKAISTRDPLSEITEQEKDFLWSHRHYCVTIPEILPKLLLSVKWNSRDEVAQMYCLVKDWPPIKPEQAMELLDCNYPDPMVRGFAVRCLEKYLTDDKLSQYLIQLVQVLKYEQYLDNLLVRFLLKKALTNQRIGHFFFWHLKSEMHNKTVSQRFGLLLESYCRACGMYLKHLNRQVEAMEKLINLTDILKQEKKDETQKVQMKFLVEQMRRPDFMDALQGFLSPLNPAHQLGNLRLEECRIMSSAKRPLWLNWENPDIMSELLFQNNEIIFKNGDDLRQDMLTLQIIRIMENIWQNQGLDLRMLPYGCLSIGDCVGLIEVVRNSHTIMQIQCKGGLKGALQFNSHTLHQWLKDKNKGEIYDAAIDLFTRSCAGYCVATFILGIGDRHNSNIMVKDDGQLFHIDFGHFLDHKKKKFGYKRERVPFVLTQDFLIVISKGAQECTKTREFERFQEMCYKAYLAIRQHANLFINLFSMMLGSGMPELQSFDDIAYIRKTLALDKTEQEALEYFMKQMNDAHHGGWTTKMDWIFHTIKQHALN
Phosphatidylinositol 4,5-bisphosphate 3-kinase catalytic subunit gamma isoform, sequence (P48736 whole entry, canonical isoform): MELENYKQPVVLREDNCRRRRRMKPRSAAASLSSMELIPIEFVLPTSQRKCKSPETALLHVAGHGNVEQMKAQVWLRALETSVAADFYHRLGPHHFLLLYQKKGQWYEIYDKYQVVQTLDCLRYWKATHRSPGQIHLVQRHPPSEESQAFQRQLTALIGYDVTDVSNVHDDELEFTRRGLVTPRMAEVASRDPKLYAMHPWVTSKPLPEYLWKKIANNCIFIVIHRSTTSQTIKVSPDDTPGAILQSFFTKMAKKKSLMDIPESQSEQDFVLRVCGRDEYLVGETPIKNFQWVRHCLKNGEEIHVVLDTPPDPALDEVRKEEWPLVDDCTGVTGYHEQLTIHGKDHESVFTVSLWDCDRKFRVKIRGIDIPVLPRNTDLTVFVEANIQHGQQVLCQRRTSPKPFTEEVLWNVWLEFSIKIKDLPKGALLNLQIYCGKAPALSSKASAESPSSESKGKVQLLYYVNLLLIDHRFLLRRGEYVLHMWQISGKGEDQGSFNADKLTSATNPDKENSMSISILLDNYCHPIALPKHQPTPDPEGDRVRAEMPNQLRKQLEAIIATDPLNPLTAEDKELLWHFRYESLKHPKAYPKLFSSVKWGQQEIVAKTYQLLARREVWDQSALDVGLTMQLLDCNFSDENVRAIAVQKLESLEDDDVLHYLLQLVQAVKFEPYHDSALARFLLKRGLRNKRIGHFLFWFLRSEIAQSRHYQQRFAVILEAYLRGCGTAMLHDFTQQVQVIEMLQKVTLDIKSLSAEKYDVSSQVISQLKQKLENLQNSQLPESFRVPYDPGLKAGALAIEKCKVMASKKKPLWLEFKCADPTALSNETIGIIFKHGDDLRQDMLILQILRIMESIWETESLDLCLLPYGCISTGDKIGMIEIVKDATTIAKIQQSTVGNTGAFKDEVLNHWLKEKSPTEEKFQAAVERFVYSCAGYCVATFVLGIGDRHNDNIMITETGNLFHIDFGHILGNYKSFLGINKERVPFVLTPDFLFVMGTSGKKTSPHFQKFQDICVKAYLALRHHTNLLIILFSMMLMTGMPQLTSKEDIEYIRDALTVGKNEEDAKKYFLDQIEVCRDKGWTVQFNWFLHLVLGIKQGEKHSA

SMILES: Cc1ccccc1-n1c(Cn2nc(-c3cnc4ccccc4c3)c3c(N)ncnc32)nc2cccc(F)c2c1=O
pIC50 [1]: 7.07
inhibition [2]: 90%

SMILES: Cc1ccccc1-n1c(Cn2nc(-c3ccc4[nH]ccc4c3)c3c(N)ncnc32)nc2cccc(F)c2c1=O
pIC50 [1]: 7.80
inhibition [2]: 94.7%

SMILES: COc1ccc(-c2nn(Cc3nc4cccc(F)c4c(=O)n3-c3ccccc3C)c3ncnc(N)c23)cn1
pIC50 [1]: 7.51
inhibition [2]: 92.7%

SMILES: Cc1cccc(C)c1-n1c(Cn2nc(-c3cnc4ccccc4c3)c3c(N)ncnc32)nc2cccc(F)c2c1=O
pIC50 [1]: 7.09
inhibition [2]: 92%

SMILES: COc1ccc(-c2nn(Cc3nc4cccc(F)c4c(=O)n3-c3c(C)cccc3C)c3ncnc(N)c23)cn1
pIC50 [1]: 7.39
inhibition [2]: 94.7%

SMILES: Cc1cccc(C)c1-n1c(Cn2nc(-c3ccc4c(c3)OCO4)c3c(N)ncnc32)nc2cccc(F)c2c1=O
pIC50 [1]: 7.08
inhibition [2]: 89.1%

SMILES: Cc1cccc(C)c1-n1c(Cn2nc(-c3cccc(OC(F)(F)F)c3)c3c(N)ncnc32)nc2cccc(F)c2c1=O
inhibition [2]: 29.6%

SMILES: CC[C@H](Nc1ncnc2[nH]cnc12)c1nc2cccc(F)c2c(=O)n1-c1ccccc1 [IDELALISIB]
GI50 [22]: 42 nM
inhibition [2]: 91.9%

SMILES: Cc1ccccc1-n1c(Cn2nc(-c3ccc4cc(O)ccc4c3)c3c(N)ncnc32)nc2cccc(F)c2c1=O
pIC50 [1]: 6.64
inhibition [2]: 73%

SMILES: Cc1ccccc1-n1c(Cn2nc(-c3ccc4c(c3)OCO4)c3c(N)ncnc32)nc2cccc(F)c2c1=O
pIC50 [1]: 6.97
inhibition [2]: 89.6%

Results, then the compound that gave them:

pIC50 [1]: 6.38
inhibition [2]: 77.3%
SMILES: Cc1cccc(C)c1-n1c(Cn2nc(-c3ccc4cc(O)ccc4c3)c3c(N)ncnc32)nc2cccc(F)c2c1=O

pIC50 [1]: 7.59
inhibition [2]: 90.8%
SMILES: COc1ccc(-c2nn(Cc3nc4cccc(F)c4c(=O)n3-c3ccccc3C)c3ncnc(N)c23)cc1OC

pIC50 [3]: 4.50
concentration at 0.083 h [4]: 198 ng/mL
concentration at 0.5 h [5]: 379 ng/mL
concentration at 4 h [6]: 2.58 ng/mL
concentration at 4 h [7]: 9.86 ng/mL
concentration at 0.25 h [8]: 343 ng/mL
bioavailability [9]: 17.3%
concentration at 0.5 h [10]: 250 ng/mL
clearance [11]: 36 mL/min/kg
concentration at 8 h [12]: 6.5 ng/mL
pIC50 [13]: 5.47
concentration at 8 h [14]: 1.83 ng/mL
Ratio IC50 [15]: 3640
AUC(0-inf) [16]: 820 ng·h/mL
Vd [17]: 1.11 L/kg
MRT inf [18]: 30.6 min
Cp [19]: Bld
concentration at 0.083 h [20]: 1020 ng/mL
Ratio IC50 [21]: 392
GI50 [22]: 149 nM
pIC50 [1]: 8.07
Cmax [23]: 387 ng/mL
inhibition [2]: 96.8%
Ratio IC50 [24]: 42
concentration at 0.25 h [25]: 541 ng/mL
Tmax [26]: 50 min
AUC(0-inf) [27]: 473 ng·h/mL
Cp [28]: Bld
concentration at 1 h [29]: 318 ng/mL
pIC50 [30]: 6.44
AUC(0-t) [31]: 471 ng·h/mL
AUC(0-t) [32]: 808 ng·h/mL
concentration at 1 h [33]: 64.3 ng/mL
concentration at 2 h [34]: 192 ng/mL
half-life [35]: 78.6 min
concentration at 2 h [36]: 13.1 ng/mL
half-life [37]: 50.4 min
SMILES: Cc1cccc(C)c1-n1c(Cn2nc(-c3ccc4[nH]ccc4c3)c3c(N)ncnc32)nc2cccc(F)c2c1=O

inhibition [2]: 70.8%
SMILES: Cc1ccccc1-n1c(Cn2nc(-c3cccc(OC(F)(F)F)c3)c3c(N)ncnc32)nc2cccc(F)c2c1=O

pIC50 [3]: 4.93
concentration at 0.083 h [4]: 198 ng/mL
concentration at 0.5 h [5]: 379 ng/mL
concentration at 4 h [6]: 2.58 ng/mL
concentration at 4 h [7]: 9.86 ng/mL
concentration at 0.25 h [8]: 343 ng/mL
bioavailability [9]: 34.9%
concentration at 0.5 h [10]: 250 ng/mL
clearance [11]: 16.5 mL/min/kg
concentration at 8 h [12]: 6.5 ng/mL
pIC50 [13]: 5.16
concentration at 8 h [14]: 1.83 ng/mL
Ratio IC50 [15]: 1410
AUC(0-inf) [16]: 3550 ng·h/mL
Vd [17]: 0.45 L/kg
MRT inf [18]: 30.6 min
Cp [19]: Bld
concentration at 0.083 h [20]: 1020 ng/mL
Ratio IC50 [21]: 828
GI50 [22]: 222 nM
pIC50 [1]: 8.08
Cmax [23]: 387 ng/mL
inhibition [2]: 96.8%
Ratio IC50 [24]: 7
concentration at 0.25 h [25]: 541 ng/mL
Tmax [26]: 50 min
AUC(0-inf) [27]: 1020 ng·h/mL
Cp [28]: Bld
concentration at 1 h [29]: 318 ng/mL
pIC50 [30]: 7.21
AUC(0-t) [31]: 1010 ng·h/mL
AUC(0-t) [32]: 3530 ng·h/mL
concentration at 1 h [33]: 64.3 ng/mL
concentration at 2 h [34]: 192 ng/mL
half-life [35]: 101 min
concentration at 2 h [36]: 13.1 ng/mL
half-life [37]: 37.2 min
SMILES: COc1ccc(-c2nn(Cc3nc4cccc(F)c4c(=O)n3-c3c(C)cccc3C)c3ncnc(N)c23)cc1OC
